Assay results from publication PMC8692498, “Synthesis and multifaceted pharmacological activity of novel quinazoline NHE-1 inhibitors” (Scientific Reports, 2021).
“Also recorded” adds a separate entry of the source.

Experiments:
[1] = Cytotoxicity study (LDH activity in the medium) in peritoneal macrophages; assay type: cell-based; settings: male, C57BL/6J, mouse, primary peritoneal macrophages; murine peritoneal macrophages, LDH, unit printed in Cyrillic
Description: (§1) Peritoneal macrophages (PM) were isolated from the peritoneal exudate of 30 male C57bl/6j mice. To accumulate PM, 1 ml of 3% peptone solution was injected intraperitoneally. After 3 days the mice were euthanized by cervical dislocation. Cells of peritoneal exudate were obtained by aseptically washing the abdominal cavity with 5 ml of sterile Hanks’s solution (+ 4-6 °C) without calcium and magnesium ions. The total number and viability of cells were assessed in a Goryaev counting chamber (Russia) with a 0.4% trypan blue staining (Sigma-Aldrich, USA). The cell concentration was adjusted to 1.0×10^6 cells/ml in DMEM (Gibco) supplemented with 2 mM L-glutamine (Gibco), 10% heat-inactivated fetal bovine serum (BioClot, Germany), 100 U/ml penicillin and […] streptomycin (Gibco) and plated 200 μl/well in 96-well transparent plates (SPL Life Sciences Co., Ltd., Korea). It was left for 2 h at 37°C in a humidified atmosphere with 5% CO2, after which the wells were washed to remove non-adherent cells. After 24 hours of incubation, 20 μl of the supernatant was removed and 20 μl of solutions of test compounds were added 30 min before E. coli O127:B8 LPS (100 ng/ml final concentration). Experiments were run in 3 independent replicates.
(§2) The activity of lactate dehydrogenase (LDH) in a cell culture medium served as a marker of membrane permeability and cell death. Aliquotes of supernatants were taken after 24 h of inoculation with test compounds, mixed with 250 μl of […] NADH solution in 54 mM phosphate buffered saline (pH 7.5). Then, 25 μl of a 6.48 mM pyruvate solution was added to the mixture. The optical density was followed at a wavelength of 340 nm for 20 min. Conversion of optical density into cell viability was carried out according to a standard curve (DMSO-treated cells as 100% and 0.01% Triton X-100-treated cells as 0% viable cells).

[2] = system: primary peritoneal macrophages of C57BL/6J mice; assay: Interleukin-6 secretion (ELISA) from LPS-stimulated peritoneal macrophages; assay type: cell-based; settings: for secretion of interleukin 6: LPS-stimulated macrophages, screening (Fig. 4)
Description: as §1
Cell supernatant was collected and centrifuged at 1000 g for 20 min in a 2-16PK Sigma centrifuge (Germany). The concentration of IL-6 was determined by ELISA using a commercial kit (Cloud-clone ELISA kit) with a microplate reader Infinite M200 PRO (Tecan, Austria).

NHE-1 [3] = biological target: T1, NHE-1 (Oryctolagus cuniculus, UniProt P23791); assay: NHE-1 inhibition assay on rabbit platelets (platelet shape change after acidification with sodium propionate, laser aggregometer); assay type: cell-based
T1 construct: endogenous in cells; host or cells: rabbit platelets in platelet-rich plasma (male rabbits)

NHE-1 [4] = biological target: T1, NHE-1; assay: as above; assay type: cell-based; settings: for inhibition at 0.01 µM: 10 nM, rabbit platelet-rich plasma, decimal commas, read-out: NHE-1 inhibition at 10 nM, m ± SD, n = 6 (%); for NHE-1 inhibitory activity (in words): compared with reference drugs
Description: Evaluation of NHE-1 inhibition was carried out on rabbit platelets by the known method[39],[40]. The experiments were carried out on 15 male rabbits weighing 3.0-4.0 kg. Platelet-rich plasma (PRP) was obtained by centrifuging blood with 3.8% sodium citrate (1:10) at 1000 rpm for 12 min (Multi centrifuge CM 6M, Latvia). Platelet shapeshifting due to acidification was followed with a laser aggregometer BIOLA-220 LA (Russia). Test compounds (10 μl, 10 nM final concentration) were added to 200 μl of PRP 5 min in a cuvette before the addition of sodium propionate solution, incubated with constant stirring using a magnetic stirrer (800 rpm, 37 °C). To control samples for NHE-1 activation, a buffer solution containing sodium propionate was added to 200 μL of PRP (600 μL, 135 mM sodium propionate, 20 mM HEPES, 1 mM CaCI2, 1 mM MgCI2, 10 mM glucose; pH 6.7). The change in light transmission at pH 7.4, 37 °C was monitored in a Krebs solution (600 μL, 120 mM NaCl, 4.8 mM KCl, 1.2 mM KH2PO4, 2.5 mM MgSO4, 25 mM NaHCO3, 2.6 mM CaCl2, 5.4 mM glucose; pH 7.4). Test compounds were added to a final concentration of 10 nM to the cuvette into 200 μl of PRP 5 min before adding the sodium propionate solution, incubated with constant stirring using a magnetic stirrer (800 rpm, 37 °C). NHE-1 inhibitors zoniporide, rimeporide, amiloride were used as reference drugs. Assays were run in 6 independent series.

rabbit platelets = assay: ADP-induced platelet aggregation assay in rabbit platelet-rich plasma; assay type: cell-based; settings: 100 μM, ADP 5 μM
Description: (§3) Functional activity of platelets was determined on a two-channel laser analyzer of platelet aggregation "BIOLA-220 LA" (Russia) as described previously. The experiments were carried out on 6 male rabbits weighing 3.5–4 kg. To prepare platelet-rich plasma (PRP) venous blood was taken from the ear marginal vein of a rabbit, stabilized with a 3.8% sodium citrate solution in a ratio of 9:1 and centrifuged for 10 min at 1500 rpm. PRP (300 μL) and a solution of the test compound at a concentration of 100 μM were sequentially introduced into the cell of the aggregometer. The samples were incubated in thermostated cells of the aggregometer at 37 °C for 5 min. To induce aggregation adenosine-5-diphosphoric acid (ADP, Sigma, USA) at a final concentration of 5 μM, was added to the cuvette. Acetylsalicylic acid (Shandong Xinhua Pharmaceutical Co., Ltd., China) was used as a reference drug. Experiments were run in 5 independent replicates.

[5] = system: primary peritoneal macrophages of C57BL/6J mice; assay: Nitric oxide synthesis (nitrite, Griess reagent) in LPS-stimulated peritoneal macrophages; assay type: cell-based; settings: 100 μM
Description: as §1
The accumulation of nitrite anion (a stable end product of NO decomposition produced by iNOS) in supernatants was determined using a standard Griess reagent. Briefly, 50 μl of supernatants collected 22 hours after incubation of PM with test and control compounds were mixed with 50 μl of 1% sulfonamide in 2.5% H3PO4 and 50 μl of 0.1% N-(1-naphthyl) ethylenediamine in 2,5% H3PO4. After incubation at 23 °C for 10 min in an orbital shaker, the optical density was determined at a wavelength of 550 nm with a microplate reader Infinite M200 PRO (Tecan, Austria).

[6] = system: primary peritoneal macrophages of C57BL/6J mice; assay: Cytotoxicity study (LDH activity in the medium) in peritoneal macrophages; assay type: cell-based; settings: 100 μM, peritoneal macrophages
Description: as §1, §2

intraocular pressure = assay: Intraocular pressure studies in outbred rats (TonoVet); assay type: in vivo
Description: The experiments were carried out on 75 adult outbred rats of both sexes, which were kept in standard cages at a temperature of 25 °C and a standard light regime. Animals were randomly assigned to the control and experimental groups (n = 5). Before the start of the experiment, the rats had free access to food and water. Intraocular pressure (IOP) was measured with a TonoVet device (Finland)[44] which measures IOP with a short touch of a small disposable tip in the center of the cornea, no corneal anesthesia is required. The study was carried out according to the published method. One drop (50 μl) of a test 0.4% solution of the compound was instilled into the right eye, and deionized water was added to the left eye. IOP was measured in both eyes. The left eye, in turn, serves to assess the possible systemic exposure of the test compounds. […] IOP-lowering activity was assessed as the maximum decrease in IOP from the initial values. At 9:00 AM, baseline IOP was measured in animals of all groups. Experiments were run in 5 independent replicates.

[7] = Solubility under the conditions of the platelet aggregation assay; assay type: physicochemical; settings: antiplatelet assay
Description: Test compounds were dissolved in 99% DMSO (stock concentration 40 mM) and stored at –25 °C. If sediment or opalescence was detected, 5% Tween 20 (Merck) was added. Serial dilutions were prepared ex tempore in a media suitable for the particular study. Final concentration in samples: DMSO <0.25%, Tween 20 <0.025% (were added to control samples in equal concentrations).
as §3

T1 sequence (P23791 whole entry): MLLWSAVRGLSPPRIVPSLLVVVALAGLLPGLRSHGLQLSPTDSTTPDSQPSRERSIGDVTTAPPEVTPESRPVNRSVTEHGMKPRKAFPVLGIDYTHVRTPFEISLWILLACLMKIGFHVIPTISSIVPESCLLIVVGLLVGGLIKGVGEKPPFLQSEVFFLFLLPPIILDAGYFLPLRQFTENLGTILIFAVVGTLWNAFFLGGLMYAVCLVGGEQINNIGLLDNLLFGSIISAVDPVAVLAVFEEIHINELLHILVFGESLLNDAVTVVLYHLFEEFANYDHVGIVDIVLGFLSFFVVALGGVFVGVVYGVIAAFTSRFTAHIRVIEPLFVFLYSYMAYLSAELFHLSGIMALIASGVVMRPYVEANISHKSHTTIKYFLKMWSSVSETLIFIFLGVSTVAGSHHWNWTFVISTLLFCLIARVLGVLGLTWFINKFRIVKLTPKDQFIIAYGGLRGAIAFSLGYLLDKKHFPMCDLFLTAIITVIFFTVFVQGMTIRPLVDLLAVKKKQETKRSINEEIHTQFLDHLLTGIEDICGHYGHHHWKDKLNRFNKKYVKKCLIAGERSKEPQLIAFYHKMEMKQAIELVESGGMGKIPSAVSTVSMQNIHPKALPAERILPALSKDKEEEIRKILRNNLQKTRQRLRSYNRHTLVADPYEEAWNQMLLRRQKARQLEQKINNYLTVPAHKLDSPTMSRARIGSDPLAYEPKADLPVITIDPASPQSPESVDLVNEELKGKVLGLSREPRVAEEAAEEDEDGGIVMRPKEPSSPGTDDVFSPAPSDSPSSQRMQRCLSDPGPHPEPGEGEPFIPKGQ

Compound	melting point [°C]	IC50 (NHE-1 [3]) [nM]	inhibition at 0.01 µM (NHE-1 [4]) [%]	NHE-1 inhibitory activity (in words) (NHE-1 [4])	other results
CC(c1nnc(N)[nH]1)n1c(=O)c2ccccc2n(C)c1=O (centres unmarked) (hydrate or solvate) [Compound 3f, 3-[1-(5-Amino-4H-1,2,4-triazol-3-yl)ethyl]-1-methylquinazoline-2,4(1H,3H)-dione]	91 to 93	–	–	–	–
C=CCn1c(=O)n(C(C)c2nnc(N)[nH]2)c(=O)c2ccccc21 (centres unmarked) (hydrate or solvate) [Compound 3h, 3-[1-(5-Amino-4H-1,2,4-triazol-3-yl)ethyl]-1-(prop-2-en-1-yl)quinazoline-2,4(1H,3H)-dione]	116 to 118	–	–	–	–
N=C(N)NC(=O)c1nc(Cl)c(N)nc1N [Amiloride, amiloride, reference compound]	–	1230	16.4	–	CC50 at 24 h [1]: > 100000 nM; IC50 ([2]; Mus musculus, Peritoneal macrophage, LPS-stimulated murine macrophages, unit printed in Cyrillic, read-out: IC50 of IL-6 secretion): 9520 nM
Cn1c(=O)n(CC(=O)NC(=N)N)c(=O)c2ccccc21 [Compound 3a, N-Carbamimidoyl-2-(1-methyl-2,4-dioxo-1,4-dihydroquinazolin-3(2H)-yl)acetamide]	266 to 269	293	33.7	comparable to the reference drug rimeporide	antiplatelet activity versus acetylsalicylic acid (rabbit platelets): exceeded the activity of the reference drug, acetylsalicylic acid
CC(C(=O)NC(=N)N)n1c(=O)c2ccccc2n(C)c1=O (centres unmarked) [Compound 3b, N-Carbamimidoyl-2-(1-methyl-2,4-dioxo-1,4-dihydroquinazolin-3(2H)-yl)propanamide]	216 to 219	–	1.49	–	secretion of interleukin 6 [2]: suppressed
N=C(N)NC(=O)Cn1c(=O)c2ccccc2n(Cc2ccccc2)c1=O [Compound 3c, 2-(1-Benzyl-2,4-dioxo-1,4-dihydroquinazolin-3(2H)-yl)-N-carbamimidoylacetamide]	180 to 183	–	7.3	–	secretion of interleukin 6 [2]: suppressed
Cn1c(=O)n(CC(=O)NC(=N)N)c(=O)c2cc(Br)ccc21 [Compound 3d, 2-(6-Bromo-1-methyl-2,4-dioxo-1,4-dihydroquinazolin-3(2H)-yl)-N-carbamimidoylacetamide]	–	961	33.2	comparable to the reference drug rimeporide	inhibition of the synthesis of nitric oxide [5]: statistically significantly inhibit; effect on cell viability [6]: absence of a statistically significant effect on cell viability; IOP-lowering effect size (intraocular pressure; compared with zoniporide and timolol): comparable to zoniporide and superior to timolol; IOP-lowering activity (intraocular pressure; one drop (50 μl) of 0.4% solution instilled): statistically significant activity; also recorded: markedly reduce intraocular pressure
CC(c1nnc(N)[nH]1)n1c(=O)c2ccccc2n(C)c1=O (centres unmarked) [Compound 3f, 3-[1-(5-Amino-4H-1,2,4-triazol-3-yl)ethyl]-1-methylquinazoline-2,4(1H,3H)-dione]	–	–	29.8	–	antiplatelet activity versus acetylsalicylic acid (rabbit platelets): exceeded the activity of the reference drug, acetylsalicylic acid
C=CCn1c(=O)n(Cc2nnc(N)[nH]2)c(=O)c2ccccc21 [Compound 3g, 3-[(5-Amino-4H-1,2,4-triazol-3-yl)methyl]-1-(prop-2-en-1-yl)quinazoline-2,4(1H,3H)-dione]	275 to 277	–	10.4	–	–
C=CCn1c(=O)n(C(C)c2nnc(N)[nH]2)c(=O)c2ccccc21 (centres unmarked) [Compound 3h, 3-[1-(5-Amino-4H-1,2,4-triazol-3-yl)ethyl]-1-(prop-2-en-1-yl)quinazoline-2,4(1H,3H)-dione]	–	–	33.2	comparable to the reference drug rimeporide	antiplatelet activity versus acetylsalicylic acid (rabbit platelets): exceeded the activity of the reference drug, acetylsalicylic acid
Nc1nnc(Cn2cnc3ccccc3c2=O)[nH]1 [Compound 6a, 3-[(5-Amino-4H-1,2,4-triazol-3-yl)methyl]quinazolin-4(3H)-one]	–	6.7	54.1	more potent and comparable to zoniporide	solubility under assay conditions [7]: insoluble under assay conditions
[H]/N=C(\N)NC(=O)c1cc(S(C)(=O)=O)c(S(C)(=O)=O)cc1C [Rimeporide, rimeporide, reference compound]	–	–	34.2	–	–
N=C(N)NC(=O)c1cnn(-c2cccc3ncccc23)c1C1CC1 [Zoniporide, zoniporide, reference compound]	–	7.3	48	–	–
